Format in all cases: functional
For assay [1], the system named is TK-10. The assay is described as follows: Cytotoxicity against human TK10 cells assessed as cellular growth at 10 uM by SRB assay. On the technique in general: The SRB assay estimates cell density from bound dye.
The subject of assay [2] is Hs-578T. Nature of the assay: Cytotoxicity against human Hs578T cells assessed as cellular growth at 10 uM by SRB assay.
Assay [3] has as its system SF-295. The assay is described as follows: Cytotoxicity against human SF295 cells assessed as cellular growth at 10 uM by SRB assay.
The subject of assay [4] is HCT-116. The assay is described as follows: Cytotoxicity against human HCT116 cells assessed as cellular growth at 10 uM by SRB assay.
In assay [5] the test system is SK-MEL-5. Nature of the assay: Cytotoxicity against human SK-MEL-5 cells assessed as cellular growth at 10 uM by SRB assay.
Assay [6] relates to NCI-H522. The assay is described as follows: Cytotoxicity against human NCI-H522 cells assessed as cellular growth at 10 uM by SRB assay.
Assay [7] concerns 786-0. The assay is described as follows: Cytotoxicity against human 786-0 cells assessed as cellular growth at 10 uM by SRB assay.
In assay [8] the test system is RPMI-8226. The assay is described as follows: Cytotoxicity against human RPMI8226 cells assessed as cellular growth at 10 uM by SRB assay.
Assay [9] concerns NCI-H23. The assay is described as follows: Cytotoxicity against human NCI-H23 cells assessed as cellular growth at 10 uM by SRB assay.
In assay [10] the test system is A549. Nature of the assay: Cytotoxicity against human A549 cells assessed as cellular growth at 10 uM by SRB assay.
The test system of assay [11] is DU-145. The assay is described as follows: Cytotoxicity against human DU145 cells assessed as cellular growth at 10 uM by SRB assay.
The subject of assay [12] is Malme-3M. Nature of the assay: Cytotoxicity against human MALME-3M cells assessed as cellular growth at 10 uM by SRB assay.
Assay [13] deals with T47D. The assay is described as follows: Cytotoxicity against human T47D cells assessed as cellular growth at 10 uM by SRB assay.
Assay [14] deals with ACHN. Nature of the assay: Cytotoxicity against human ACHN cells assessed as cellular growth at 10 uM by SRB assay.
The test system of assay [15] is K562. Nature of the assay: Cytotoxicity against human K562 cells assessed as cellular growth at 10 uM by SRB assay.
Assay [16] deals with MDA-MB-435. The assay is described as follows: Cytotoxicity against human MDA-MB-435 cells assessed as cellular growth at 10 uM by SRB assay.
For assay [17], the system named is CAKI-1. The assay is described as follows: Cytotoxicity against human Caki1 cells assessed as cellular growth at 10 uM by SRB assay.
Assay [18] concerns SN12C. The assay is described as follows: Cytotoxicity against human SN12C cells assessed as cellular growth at 10 uM by SRB assay.
The subject of assay [19] is KM12. The assay is described as follows: Cytotoxicity against human KM12 cells assessed as cellular growth at 10 uM by SRB assay.
The subject of assay [20] is UACC-62. Nature of the assay: Cytotoxicity against human UACC62 cells assessed as cellular growth at 10 uM by SRB assay.

Structures are written as SMILES.

`Nc1c(C(=O)Nc2ccc(Cl)c(Cl)c2)sc2nc(-c3cccs3)ccc12`: the Activity amounted to 87.49% in [1]; 129.34% in assay [2]; 106.17% in [3]; 75.19% in [4]; 90.4% in [5]; 81.53% in assay [6]. The Activity in assay [7] came to 88.45%; in assay [8], 87.02%; in [9], 68.82%; in [10], 54.62%; in [11], 91.96%; in assay [12] it was 90.04%. Also, the Activity came to 85.21% in assay [13]; 99.6% in [14]; 86.57% in assay [15]; 83.41% in assay [16]; 95.41% in assay [17]; 89.08% in [18]. Further, the Activity in assay [19] was determined as 99.94%; in assay [20], 79.48%.
For `N#Cc1ccc(NC(=O)c2sc3nc4c(cc3c2N)C(=O)CCC4)cc1`, the Activity in [1] is on record as 65.94%; in assay [2] it was 110.8%; in [3] it was 82.4%; in assay [4], 107.92%; in assay [5] it was 92.55%; in assay [6], 102.85%. The Activity is recorded as 97.81% in assay [7]; 95.69% in assay [8]; 106.13% in assay [9]; 92.54% in assay [10]; 94.94% in [11]; 89.34% in [12]. Also, the Activity in [13] worked out at 95.85%; in assay [14] it was 107.57%; in [15], 108.42%; in [16] it was 97.44%; in assay [17], 93.27%; in assay [18], 98.35%. Also, the Activity in assay [19] is 101.12%; in assay [20], 99.27%.
With `CC1(C)CC(=O)c2cc3c(N)c(C(=O)Nc4ccc(F)cc4)sc3nc2C1`, the Activity is recorded as 105.13% in assay [1]; 111.09% in [2]; 88.4% in [3]; 114.92% in assay [4]; 99.04% in assay [5]; 102.43% in assay [6]. The Activity was determined as 104.75% in assay [7]; 103.3% in assay [8]; 102% in [9]; 105.88% in assay [10]; 122.42% in assay [11]; 116.52% in assay [12]. Moreover, the Activity is recorded as 111.5% in [13]; 112.82% in [14]; 106.71% in assay [15]; 103.15% in assay [16]; 98.34% in [17]; 122.37% in assay [18]. For the same compound, the Activity in assay [19] is 115.29%; in [20], 119.59%.
With `Cc1c(OCC(=O)c2ccccc2)ccc2c1oc(=O)c1ccccc12`, the Activity in assay [1] turned out to be 110%; in assay [2], 103.5%; in [3], 99.54%; in assay [4], 107.52%; in [5], 97.8%; in assay [6], 110.46%. The Activity in assay [7] is given as 104.87%; in [8] it was 107.85%; in assay [9], 109.71%; in assay [10], 93.47%; in assay [11] it was 106.9%; in assay [12], 120.27%. Further, the Activity is 94.27% in [13]; 114.47% in [14]; 100.66% in assay [15]; 98.4% in assay [16]; 99.74% in assay [17]; 101.41% in assay [18]. The figures for the Activity in [19] and in [20] were 97.66% and 98.05%, respectively.
Consider `Nc1c(C(=O)Nc2ccccc2)sc2nc3c(cc12)C(=O)CCC3`, for which the Activity in [1] is given as 63.62%; in assay [2], 37.53%; in assay [3] it was -12.42%; in assay [4], 23.57%; in assay [5], 25.74%; in assay [6], -33.85%. Besides, the Activity in assay [7] was determined as 36.19%; in [8], 30.21%; in assay [9] it was 39.48%; in assay [10], 19.69%; in assay [11], 0.62%; in assay [12], 76.23%. Besides, the Activity in [13] is recorded as 47.06%; in assay [14], 49.71%; in [15], 17.06%; in assay [16], -5.95%; in [17], 54.68%; in assay [18], 59.85%. For the same compound, the Activity in [19] is on record as 19.9%; in [20], 44.06%.
As for `Cc1ccc(NC(=O)c2sc3nc(-c4cccs4)ccc3c2N)cc1C`, the Activity in [1] amounted to 87%; in assay [2] it was 110.72%; in assay [3] it was 110.27%; in assay [4], 106.03%; in [5] it was 98.52%; in [6] it was 100.77%. Moreover, the Activity in [7] turned out to be 105.46%; in assay [8], 103.98%; in assay [9] it was 111.92%; in assay [10] it was 96.75%; in [11] it was 103.5%; in [12] it was 118.51%. Moreover, the Activity in assay [13] was determined as 96.25%; in [14] it was 125.53%; in assay [15] it was 90.31%; in [16], 101.83%; in [17], 131.91%; in [18], 100.59%. Also, the Activity in assay [19] is 106.51%; in [20], 89.05%.
Take `Cc1ccc(Cl)cc1NC(=O)c1sc2nc3c(cc2c1N)C(=O)CCC3`: the Activity in [1] worked out at 96.55%; in [2], 60.85%; in [3] it was 4.01%; in assay [4], 67.98%; in [5] it was 26.98%; in assay [6], 22.92%. For the same compound, the Activity in assay [7] turned out to be 89.229%; in assay [8], 95.05%; in assay [9] it was 63.04%; in assay [10], 53.86%; in assay [11], 77.37%; in [12], 81.13%. In addition, the Activity is on record as 82.87% in [13]; 55.94% in assay [14]; 33.61% in [15]; -3.04% in assay [16]; 41.45% in assay [17]; 80.57% in assay [18]. Moreover, the results for the Activity in [19] and in assay [20] were 37.01% and 53.09%, respectively.
